Laboratory results published in patent US5162328A, “N-[3-[2-(1H-imidazol-1-yl)ethoxy]phenyl]-4-(2-thienyl)-2-pyrimidinamine and pharmacologically acceptable salts” (American Cyanamid Company, priority 1991, dated 1992).
Like-named read-outs stand apart in the source and are kept apart here.

Experiment: Pharmacokinetics in dogs (plasma concentration by HPLC)
Assay type: in vivo, dog (beagle)
Settings: for AUC(0-inf): read-out: AUCO- (to infinite time); for concentration at 0.5 h / concentration at 1 h / concentration at 2 h / concentration at 4 h / concentration at 7 h / Cmax / AUC(0-t) at 4 h: one dog (Dog 1); for concentration at 0.5 h / concentration at 1 h / concentration at 2 h / concentration at 4 h / concentration at 7 h: heading: Plasma concentration; for AUC(0-t) at 4 h: read-out: AUC0-4
Protocol: Since dogs are used in toxicology studies of antiasthma compounds, this species is chosen for pharmacokinetic evaluations. Use of the dog permits the pharmacokinetic comparison of 2 or more compounds in the same test animal, an evaluation which could not be conveniently performed in a smaller species. For each test compound, normal dogs are given a dose of 2.0 mg/kg/day for 5 consecutive days. There is a washout period of 1 month between the study of each of the test compounds in the same four dogs. Each test compound is administered as a solution of 5 mg/ml in either 0.05 or 0.1N HCl which is dispensed into a gelatin capsule immediately prior to dosage.
Heparinized blood samples are obtained from each animal on the first, third and fifth day of dosage at 0.5, 1.0, 2.0, 4.0, 7.0, 12.0 and 24.0 hours after the dose. The samples are centrifuged immediately to obtain plasma which is frozen until analyzed.
Analysis of plasma is performed using High Performance Liquid Chromatography (HPLC). The analytical procedure is essentially identical for each compound. The internal standard used for N-[3-[2-(1H-imidazol-1-yl)ethoxy]phenyl]-4-(2-thienyl)2-pyrimidinamine is 2-chloro-11-(4-methyl-1-piperazinyl)dibenz[b,f][1,4]oxazepine succinate, while for 2-methyl-N^4 -[4-(4-pyridinyl)-2-pyrimidinyl]-1,4-benzenediamine dihydrochloride and N-[4-[2-(diethylamino)ethoxy]phenyl]-4-(4-pyridinyl)-2-pyrimidnamine dihydrochloride the internal standard is 7-ethoxy-coumarin. In a typical procedure, a 0.4 ml volume of acetonitrile containing internal standard is added a 0.2 ml volume of serum. The sample is mixed by vortexing and centrifuged. The clear protein free supernatent fluid is decanted into a clean tube and evaporated to dryness. The dry residue is dissolved in 0.2 ml of HPLC mobile phase and 50 ul of this solution injected. Peaks corresponding to the test compound being measured and to the internal standard compound are quantitated by their absorption of ultraviolet light at 280 nm. Each set of analytical samples is accompanied by the analysis of a group of standard dog plasma samples prepared to contain amounts of the compound being measured which encompasses the concentration range of the samples.
Four normal beagle dogs weighing between 9.2 and 10.2 Kg are used in the study.

[1] = dog, plasma, po, 2 mg/kg/day, Dog 1, day 1, 2 mg/kg/day PO
[2] = dog, plasma, po, 2 mg/kg/day, Dog 1, day 3, 2 mg/kg/day PO
[3] = dog, plasma, po, 2 mg/kg/day, Dog 1, day 5, 2 mg/kg/day PO
[4] = dog, plasma, po, 2 mg/kg/day, day 1, 2 mg/kg/day PO
[5] = dog, plasma, po, 2 mg/kg/day, day 3, 2 mg/kg/day PO
[6] = dog, plasma, po, 2 mg/kg/day, day 5, 2 mg/kg/day PO

Tmax [1]: 1 h
half-life [1]: 1.77 h
AUC(0-inf) [1]: 374 ng·h/mL
Tmax [2]: 1 h
half-life [2]: 1.25 h
AUC(0-inf) [2]: 423 ng·h/mL
Tmax [3]: 1 h
half-life [3]: 2.16 h
AUC(0-inf) [3]: 392 ng·h/mL
concentration at 0.5 h (dog, plasma, po, 2 mg/kg/day, day 1, 0.5 h, 2 mg/kg/day PO): 30 ng/mL
concentration at 1 h (dog, plasma, po, 2 mg/kg/day, day 1, 1.0 h, 2 mg/kg/day PO): 125 ng/mL
concentration at 2 h (dog, plasma, po, 2 mg/kg/day, day 1, 2.0 h, 2 mg/kg/day PO): 102 ng/mL
concentration at 4 h (dog, plasma, po, 2 mg/kg/day, day 1, 4.0 h, 2 mg/kg/day PO): 40 ng/mL
concentration at 7 h (dog, plasma, po, 2 mg/kg/day, day 1, 7.0 h, 2 mg/kg/day PO): < 30 ng/mL
Cmax [4]: 125 ng/mL
AUC(0-t) at 4 h [4]: 302 ng·h/mL
concentration at 0.5 h (dog, plasma, po, 2 mg/kg/day, day 3, 0.5 h, 2 mg/kg/day PO): 124 ng/mL
concentration at 1 h (dog, plasma, po, 2 mg/kg/day, day 3, 1.0 h, 2 mg/kg/day PO): 192 ng/mL
concentration at 2 h (dog, plasma, po, 2 mg/kg/day, day 3, 2.0 h, 2 mg/kg/day PO): 81 ng/mL
concentration at 4 h (dog, plasma, po, 2 mg/kg/day, day 3, 4.0 h, 2 mg/kg/day PO): 34 ng/mL
concentration at 7 h (dog, plasma, po, 2 mg/kg/day, day 3, 7.0 h, 2 mg/kg/day PO): < 30 ng/mL
Cmax [5]: 192 ng/mL
AUC(0-t) at 4 h [5]: 362 ng·h/mL
concentration at 0.5 h (dog, plasma, po, 2 mg/kg/day, day 5, 0.5 h, 2 mg/kg/day PO): < 30 ng/mL
concentration at 1 h (dog, plasma, po, 2 mg/kg/day, day 5, 1.0 h, 2 mg/kg/day PO): 153 ng/mL
concentration at 2 h (dog, plasma, po, 2 mg/kg/day, day 5, 2.0 h, 2 mg/kg/day PO): 82 ng/mL
concentration at 4 h (dog, plasma, po, 2 mg/kg/day, day 5, 4.0 h, 2 mg/kg/day PO): 55 ng/mL
concentration at 7 h (dog, plasma, po, 2 mg/kg/day, day 5, 7.0 h, 2 mg/kg/day PO): < 30 ng/mL
Cmax [6]: 153 ng/mL
AUC(0-t) at 4 h [6]: 293 ng·h/mL
k el (dog, plasma, po, 2 mg/kg/day, derived from mean of half-life values, read-out: elimination constant (converted)): 0.000155 s⁻¹
SMILES: CCN(CC)CCOc1ccc(Nc2nccc(-c3ccncc3)n2)cc1.Cl.Cl [Compound 3, N-[4-[2-(diethylamino)ethoxy]phenyl]-4-(4-pyridinyl)-2-pyrimidinamine dihydrochloride, reference compound]
measurable concentrations in plasma (in words) (four dogs, 2 mg/kg/day PO): only one dog provided measurable concentrations of compound in the plasma
